pIC50: −log10 of the molar value.
What was measured:
[1] = Blood pressure in salt-depleted monkeys after oral dosing; format: in vivo, cynomolgous monkeys; settings: 3 mg/kg oral
From the text: (§1) The ability of the compounds of the invention to decrease blood pressure and plasma renin activity in vivo can be determined using the following method.
(§2) Male cynomolgous monkeys housed under constant temperature and lighting conditions and weighing 3-5 kg were instrumented with chronic indwelling arterial and venous catheters.

plasma renin = assay: Plasma renin activity (PRA) in salt-depleted monkeys after oral dosing; format: in vivo, cynomolgous monkeys; settings: 3 mg/kg oral
From the text: as §1, §2

human renal renin = biological target: T1, human renal renin (Homo sapiens, UniProt P00797); assay: Inhibition of human renal renin in vitro (angiotensin I formation by radioimmunoassay); format: biochemical; settings: human renal renin, 37 degrees C, pH 6.0; read-out: IC50
T1 construct: from tissue; host or cells: human kidney (read from the word 'renal'; no preparation is printed)
T1 sequence (P00797 67-406): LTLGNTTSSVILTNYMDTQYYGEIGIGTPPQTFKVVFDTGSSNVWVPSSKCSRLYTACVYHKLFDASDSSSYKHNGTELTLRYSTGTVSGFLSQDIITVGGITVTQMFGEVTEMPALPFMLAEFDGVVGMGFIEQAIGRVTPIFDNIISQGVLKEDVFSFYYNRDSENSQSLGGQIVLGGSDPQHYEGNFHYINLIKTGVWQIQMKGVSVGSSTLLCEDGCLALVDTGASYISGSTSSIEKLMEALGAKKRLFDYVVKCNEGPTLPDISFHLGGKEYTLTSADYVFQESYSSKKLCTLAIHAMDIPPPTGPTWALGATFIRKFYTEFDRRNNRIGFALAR

[2] = Mean of two monkeys, time 0 min

## CCCC[C@H](O[C@@H](Cc1ccccc1)C(=O)N1CCC(OCOC)CC1)C(=O)N[C@@H](CC1CCCCC1)[C@@H](O)C[C@H](C(=O)NCCCN1CCOCC1)C(C)C [Example 118, 2(S)-(1(S)-(4-(Methoxymethoxy)piperidin-1-yl)carbonyl-2-phenyl)ethoxyhexanoic acid amide of 3-(4-morpholinyl)propyl 5(S)-amino-6-cyclohexyl-4(S)-hydroxy-2(S)-isopropylhexanamide]
[1]; Mean of two monkeys, 5 min
  Blood pressure (BP): 117 mmHg
[1]; Mean of two monkeys, 15 min
  Blood pressure (BP): 111 mmHg
[1]; Mean of two monkeys, 30 min
  Blood pressure (BP): 112 mmHg
[1]; Mean of two monkeys, 45 min
  Blood pressure (BP): 104 mmHg
[1]; Mean of two monkeys, 60 min
  Blood pressure (BP): 109 mmHg
[1]; Mean of two monkeys, 90 min
  Blood pressure (BP): 98 mmHg
[1]; Mean of two monkeys, 120 min
  Blood pressure (BP): 94 mmHg
[1]; Mean of two monkeys, 180 min
  Blood pressure (BP): 94 mmHg
[1]; Mean of two monkeys, 360 min
  Blood pressure (BP): 99 mmHg
[1]; [2]
  Blood pressure (BP): 114 mmHg
[1]; Monkey 1, 5 min
  Blood pressure (BP): 112 mmHg
[1]; Monkey 1, 15 min
  Blood pressure (BP): 105 mmHg
[1]; Monkey 1, 30 min
  Blood pressure (BP): 113 mmHg
[1]; Monkey 1, 45 min
  Blood pressure (BP): 95 mmHg
[1]; Monkey 1, 60 min
  Blood pressure (BP): 102 mmHg
[1]; Monkey 1, 90 min
  Blood pressure (BP): 90 mmHg
[1]; Monkey 1, 120 min
  Blood pressure (BP): 84 mmHg
[1]; Monkey 1, 180 min
  Blood pressure (BP): 84 mmHg
[1]; Monkey 1, 360 min
  Blood pressure (BP): 94 mmHg
[1]; Monkey 1, time 0 min
  Blood pressure (BP): 107 mmHg
[1]; Monkey 2, 5 min
  Blood pressure (BP): 121 mmHg
[1]; Monkey 2, 15 min
  Blood pressure (BP): 117 mmHg
[1]; Monkey 2, 30 min
  Blood pressure (BP): 110 mmHg
[1]; Monkey 2, 45 min
  Blood pressure (BP): 112 mmHg
[1]; Monkey 2, 60 min
  Blood pressure (BP): 115 mmHg
[1]; Monkey 2, 90 min
  Blood pressure (BP): 106 mmHg
[1]; Monkey 2, 120 min
  Blood pressure (BP): 103 mmHg
[1]; Monkey 2, 180 min
  Blood pressure (BP): 103 mmHg
[1]; Monkey 2, 360 min
  Blood pressure (BP): 103 mmHg
[1]; Monkey 2, time 0 min
  Blood pressure (BP): 120 mmHg
Plasma renin; Mean of two monkeys, 5 min
  Plasma Renin Activity (PRA): 9.7 ng/mL/h
Plasma renin; Mean of two monkeys, 15 min
  Plasma Renin Activity (PRA): 1.5 ng/mL/h
Plasma renin; Mean of two monkeys, 30 min
  Plasma Renin Activity (PRA): 0.4 ng/mL/h
Plasma renin; Mean of two monkeys, 45 min
  Plasma Renin Activity (PRA): 0.2 ng/mL/h
Plasma renin; Mean of two monkeys, 60 min
  Plasma Renin Activity (PRA): 0.2 ng/mL/h
Plasma renin; Mean of two monkeys, 90 min
  Plasma Renin Activity (PRA): 0.0 ng/mL/h
Plasma renin; Mean of two monkeys, 120 min
  Plasma Renin Activity (PRA): 0.3 ng/mL/h
Plasma renin; Mean of two monkeys, 180 min
  Plasma Renin Activity (PRA): 0.3 ng/mL/h
Plasma renin; Mean of two monkeys, 360 min
  Plasma Renin Activity (PRA): 0.2 ng/mL/h
Plasma renin; [2]
  Plasma Renin Activity (PRA): 23.9 ng/mL/h
Plasma renin; Monkey 1, 5 min
  Plasma Renin Activity (PRA): 5.8 ng/mL/h
Plasma renin; Monkey 1, 15 min
  Plasma Renin Activity (PRA): 0.1 ng/mL/h
Plasma renin; Monkey 1, 30 min
  Plasma Renin Activity (PRA): 0.4 ng/mL/h
Plasma renin; Monkey 1, 45 min
  Plasma Renin Activity (PRA): 0.0 ng/mL/h
Plasma renin; Monkey 1, 60 min
  Plasma Renin Activity (PRA): 0.0 ng/mL/h
Plasma renin; Monkey 1, 90 min
  Plasma Renin Activity (PRA): 0.0 ng/mL/h
Plasma renin; Monkey 1, 120 min
  Plasma Renin Activity (PRA): 0.2 ng/mL/h
Plasma renin; Monkey 1, 180 min
  Plasma Renin Activity (PRA): 0.2 ng/mL/h
Plasma renin; Monkey 1, 360 min
  Plasma Renin Activity (PRA): 0.0 ng/mL/h
Plasma renin; Monkey 1, time 0 min
  Plasma Renin Activity (PRA): 29.1 ng/mL/h
Plasma renin; Monkey 2, 5 min
  Plasma Renin Activity (PRA): 13.5 ng/mL/h
Plasma renin; Monkey 2, 15 min
  Plasma Renin Activity (PRA): 2.9 ng/mL/h
Plasma renin; Monkey 2, 30 min
  Plasma Renin Activity (PRA): 0.4 ng/mL/h
Plasma renin; Monkey 2, 45 min
  Plasma Renin Activity (PRA): 0.3 ng/mL/h
Plasma renin; Monkey 2, 60 min
  Plasma Renin Activity (PRA): 0.3 ng/mL/h
Plasma renin; Monkey 2, 90 min
  Plasma Renin Activity (PRA): 0.0 ng/mL/h
Plasma renin; Monkey 2, 120 min
  Plasma Renin Activity (PRA): 0.4 ng/mL/h
Plasma renin; Monkey 2, 180 min
  Plasma Renin Activity (PRA): 0.4 ng/mL/h
Plasma renin; Monkey 2, 360 min
  Plasma Renin Activity (PRA): 0.3 ng/mL/h
Plasma renin; Monkey 2, time 0 min
  Plasma Renin Activity (PRA): 18.7 ng/mL/h
Human renal renin
  pIC50: 9.08

Source: patent publication US5268374A, “Non-peptide renin inhibitors” (Abbott Laboratories, priority 1991, dated 1993)
